For one compound, melting point results are on record in patent publication US8221775B2, “Pyrrolin-2-ylamino compounds for combating animal pests” (BASF SE, priority 2008, dated 2012).

As usually defined, the melting point is the temperature of the solid-liquid transition.

For the compound `Brc1ccc(C2CCC(NC(Cc3ccccc3)c3ccccc3)=N2)cc1` (stereo not shown), the melting point fell in the range of 130 to 134 °C.
